#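 In this assay, cells in 96-well plates receive the compound at five concentrations for 48 hours. Endpoints are linearly interpolated between the surrounding concentrations. Here, GI50 denotes the concentration required for 50% inhibition of growth. Definition used: TGI = concentration required for complete inhibition of growth.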
# Key:
# Assay in all cases: NCI tumour cell line growth inhibition, 48 h
# SK-MEL-5 melanoma = test system: SK-MEL-5 melanoma
# A549 NSCLC = test system: A549 NSCLC
# EKVX NSCLC = test system: EKVX NSCLC
# HL-60(TB) leukemia = test system: HL-60(TB) leukemia
# U251 CNS = test system: U251 CNS
# M14 melanoma = test system: M14 melanoma
# HT29 colon = test system: HT29 colon
# MDA-MB-231 breast = test system: MDA-MB-231 breast
# SK-MEL-2 melanoma = test system: SK-MEL-2 melanoma
# MCF7 breast = test system: MCF7 breast
Compound,GI50 (SK-MEL-5 melanoma) [µM],TGI (SK-MEL-5 melanoma) [µM],GI50 (A549 NSCLC) [µM],TGI (A549 NSCLC) [µM],GI50 (EKVX NSCLC) [µM],TGI (EKVX NSCLC) [µM],GI50 (HL-60(TB) leukemia) [µM],TGI (HL-60(TB) leukemia) [µM],GI50 (U251 CNS) [µM],TGI (U251 CNS) [µM],GI50 (M14 melanoma) [µM],TGI (M14 melanoma) [µM],GI50 (HT29 colon) [µM],TGI (HT29 colon) [µM],GI50 (MDA-MB-231 breast) [µM],TGI (MDA-MB-231 breast) [µM],GI50 (SK-MEL-2 melanoma) [µM],TGI (SK-MEL-2 melanoma) [µM],GI50 (MCF7 breast) [µM],TGI (MCF7 breast) [µM]
COc1ccc2c(c1)[nH]c(=O)c1c3cccnc3cn21,0.025,0.0992,0.0479,24.4,1.12,> 94.5,0.0262,1.21,0.041,12.2,0.0265,19.9,0.03,0.168,0.299,25.4,0.037,11.3,0.0965,14.1
CCOC(=O)c1cc2c(cc1Cl)SC(N(c1ccc(F)cc1)S(=O)(=O)c1ccc(OC)cc1)=NS2(=O)=O,13.6,26.5,22,> 100,21.2,51.8,18.5,42.4,16.2,34.7,19.5,49.1,16.1,34.6,19.2,53.5,12.4,35.1,11.8,25.4
FC(F)(F)c1ccc2c(c1)N(CCCN1CCN(C3CC3)CC1)c1ccccc1S2,4.08,14.4,10.9,23.5,6.09,22.2,6.03,23.3,4.94,18,15.1,30.7,3.48,13.8,10.9,26.1,18.9,34.9,9.53,22.1
Cc1cccc(C(C)O)n1 (stereo not given),–,> 100,–,> 100,–,> 100,–,> 100,–,> 100,–,> 100,–,> 100,–,> 100,–,> 100,–,> 100
O=C(O)C(/C=C/c1ccco1)=N\Nc1nc(-c2ccc(Cl)cc2)cs1,14.8,> 50,16,> 50,17.1,> 50,17.1,> 50,4.59,> 50,12.7,> 50,20.9,> 50,14.7,> 50,9.45,24.8,10.2,40.6
Cc1c(C(=O)/C=C/c2ccc(O)cc2)nnn1-c1ccnc2c(C(F)(F)F)cccc12,4.81,24.8,8.55,> 100,39,> 100,4.01,31.4,5.14,69.8,49.6,> 100,3.36,30.1,21.7,> 100,> 100,> 100,23.5,> 100
Nc1cc(N)c2nc(-c3ccccc3)c(Nc3ccc(F)cc3)nc2c1,14.4,33,17.2,44.6,12,30,11.3,> 100,5.65,20,16.3,43.3,18.6,35.3,11,30.5,29.8,> 100,12.5,> 100
